The values below come from PMC5910040, “An Antarctic Extreme Halophile and Its Polyextremophilic Enzyme: Effects of Perchlorate Salts” (Astrobiology, 2018).

The target in test [1] is T1, H. lacusprofundi β-galactosidase enzyme (Halorubrum lacusprofundi, UniProt B9LW38).
T1 construct: made in house; host or cells: Halobacterium sp; NRC-1 (pRK42)
T1 sequence (B9LW38 1-700): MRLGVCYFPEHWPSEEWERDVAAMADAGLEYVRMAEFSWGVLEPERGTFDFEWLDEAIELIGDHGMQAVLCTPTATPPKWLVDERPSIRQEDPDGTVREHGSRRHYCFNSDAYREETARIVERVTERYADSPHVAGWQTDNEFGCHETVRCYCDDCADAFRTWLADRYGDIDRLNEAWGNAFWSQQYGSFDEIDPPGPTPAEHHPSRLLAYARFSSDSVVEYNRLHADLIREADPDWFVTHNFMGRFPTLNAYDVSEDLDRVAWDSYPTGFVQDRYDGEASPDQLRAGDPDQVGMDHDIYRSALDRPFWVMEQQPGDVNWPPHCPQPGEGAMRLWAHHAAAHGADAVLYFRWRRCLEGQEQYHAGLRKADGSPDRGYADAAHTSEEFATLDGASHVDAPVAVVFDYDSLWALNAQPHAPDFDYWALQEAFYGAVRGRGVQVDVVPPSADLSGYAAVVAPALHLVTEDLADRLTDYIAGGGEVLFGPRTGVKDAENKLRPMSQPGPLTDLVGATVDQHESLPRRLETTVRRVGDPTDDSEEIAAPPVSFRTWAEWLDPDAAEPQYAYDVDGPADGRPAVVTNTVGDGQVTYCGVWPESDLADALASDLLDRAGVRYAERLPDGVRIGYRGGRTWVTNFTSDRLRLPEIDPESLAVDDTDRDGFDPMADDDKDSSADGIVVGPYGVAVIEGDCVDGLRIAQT
Nature of the test: Steady-state kinetic inhibition of purified β-galactosidase (ONPG). It is filed as biochemical. As to conditions: for type of inhibition: Lineweaver-Burk / Dixon plots. The protocol:
To purify β-galactosidase, cultures of Halobacterium sp. NRC-1 (pRK42) (Karan et al., [2013]) were grown to late-log phase (OD600 ∼ 1.0), harvested, resuspended in binding buffer (20 mM phosphate buffer, 2.0 M NaCl, 10% (v/v) glycerol, 30 mM imidazole, pH 7.4), and lysed by sonication (Model 50 Sonic Dismembrator, ThermoFisher Scientific, Waltham, MA). Cell debris was removed by centrifugation (25,000g, 4°C, 10 min) in an Eppendorf 5417C centrifuge, and resulting crude extract was filtered through a 0.2 μm polyethersulfone filter (ThermoFisher Scientific, Waltham, MA). The proteins were purified by using Nickel HisTrap HP Columns (GE Healthcare, Chicago, IL), equilibrated, and washed with binding buffer, and eluted sequentially with 2 M NaCl, 100 mM phosphate buffer (pH 7.4) supplemented with 40, 80, 100, 200, and 500 mM imidazole.
Column fractions were tested for activity with o-nitrophenyl-β-D-galactopyranoside (ONPG, ThermoFisher Scientific, Waltham, MA). Active fractions were combined and protein concentration estimated by absorption at 280 nm with a Shimadzu UV-1601 spectrophotometer (Shimadzu Corporation, Kyoto, Japan). To confirm purity, the protein was analyzed by 10% SDS-PAGE followed by staining with Coomassie Blue (Millipore Sigma, Billerica, MA).
The inhibitory properties of Mg^2+ and ClO4^− ions on the β-galactosidase enzyme were tested through steady-state kinetics with a Shimadzu UV-1601 spectrophotometer. The assay solution containing 10 μg/mL enzyme was preincubated at 50°C followed by addition of ONPG at three different concentrations (1, 2.5, and 5 mM), and absorption was recorded at 420 nm. V0, the Michaelis constant (Km), as well as Vmax, were determined with UV Probe ver. 4.23 software (Shimadzu Corporation, Kyoto, Japan). kcat was calculated from given values of Km and Vmax. After the kinetic experiments were recorded, Lineweaver-Burk plots for each concentration of the inhibitory ion were used to determine whether the inhibition was competitive or noncompetitive. KI was determined by using Dixon plots, which use the reciprocal velocity of multiple steady-state kinetic experiments at multiple substrate and inhibitor concentrations to extrapolate the concentration of inhibitor that results in half-maximal inhibition (Yoshino and Murakami, [2009]). All experiments were run in triplicate and averages used for kinetic analysis.

The test system of another test is methanogens. Also noted: method as in Kral et al., 2004. As to conditions: grown on Mars soil simulant; ref Kral et al., 2004; cited from earlier work.
The test system of test [2] is Halobacterium sp. NRC-1. Nature of the test: Aerobic growth rate of Halobacterium sp. NRC-1 with added salts. It is filed as cell-based. As to conditions: Mg2+ added. The protocol:
(§1) For aerobic growth, cultures of halophiles were shaken in the light in test tubes at 42°C in CM^+ for Halobacterium sp. NRC-1 and at 37°C in ATCC 1682 media for H. lacusprofundi (Berquist et al., [2007]), adjusted to the desired concentration of NaClO4, MgCl2, and Mg(ClO4)2. For anaerobic growth, cultures were grown in the dark without shaking, essentially as described previously (Oren et al., [2014]). OD600 was recorded with a Spectronic 200 (ThermoFisher Scientific, Waltham, MA) test tube reader. Growth rates were calculated by using the slope of a line of regression calculated from early to mid-log phase.

In test [3] the test system is Halorubrum lacusprofundi. Kind of test: Aerobic growth rate of Halorubrum lacusprofundi with added salts. The format is cell-based. The protocol: as §1
The next test has as its system Methanosarcina sp. Also noted: method as in Shcherbakova et al., 2015. As to conditions: 9.8 mM NaClO4; ref Shcherbakova et al., 2015; cited from earlier work.
For test [4], the system named is Methanobacterium articum M2 VKM B-2372. Also noted: method as in Shcherbakova et al., 2015. As to conditions: 9.8 mM NaClO4; ref Shcherbakova et al., 2015; cited from earlier work.
In test [5] the test system is Halobacterium sp. NRC-1. Kind of test: Anaerobic growth assay of Halobacterium sp. NRC-1. To be noted: 40 mM NaClO4, dark, no oxygen, 8 days. The format is cell-based. The protocol: as §1
Test [6] concerns Methanobacterium veterum MK4 VKM B-2440. Also on record: method as in Shcherbakova et al., 2015. As to conditions: 9.8 mM NaClO4; ref Shcherbakova et al., 2015; cited from earlier work.
The subject of test [7] is Halorubrum lacusprofundi. Kind of test: Anaerobic growth assay of Halorubrum lacusprofundi. It is filed as cell-based. To be noted: 40 mM (0.04 M) perchlorate, dark, no oxygen, 8 days. How it is done:
as §1

Molecules are shown by their SMILES. Values joined by “and” are separate entries in the source; they are usually repeats but may differ in a detail not shown here. Equal entries are not always repeated. “Also recorded” adds a separate entry of the source.

As for `[O-][Cl+3]([O-])([O-])O` [Mg(ClO4)2, magnesium perchlorate], in [1], the type of inhibition result is given as “mixed inhibitor; also recorded: mixed inhibition”. The “concentration up to which methanogens metabolize” value in the test with methanogens is listed as “up to 0.06 M”.
Regarding `[Mg+2]` [MgCl2, magnesium chloride], in the test with Halobacterium sp. NRC-1 [2], the “concentration up to which no significantly deleterious effect on growth” value was approximately 1 M. For the same compound, in the test with Halorubrum lacusprofundi [3] (ATCC 1682 medium), the “highest concentration at which a measurable growth rate was recorded” value is on record as 1.4 M. In the test on Halorubrum lacusprofundi [3] (Halorubrum lacusprofundi, 1.2 M Mg2+ (MgCl2 added), read-out: decrease in growth rate), the inhibition of growth at 1.2 M came out at 40%. In addition, the inhibition of growth at 1.4 M with Halorubrum lacusprofundi [3] (Halorubrum lacusprofundi, 1.4 M Mg2+ (MgCl2 added), read-out: decrease in growth rate) came to 80%. Also, the “concentration up to which a substantial growth rate is retained / no significantly deleterious effect” value in the test on Halorubrum lacusprofundi [3] (MgCl2 added, listed as Mg^2+) is 0.9 M and ~1 M. The inhibition at 250000 µM in test [1] (0.5 M Na+ replaced with 0.25 M Mg2+ using magnesium chloride, read-out: decrease in catalytic efficiency) was 70%. Moreover, the figures for the type of inhibition entry in test [1] and in [1] (listed as Mg^2+) were “competitive inhibitor” and “competitive inhibition”, respectively.
For `[O-][Cl+3]([O-])([O-])O` [NaClO4, sodium perchlorate], the reduction in methanogenesis (in the test on Methanosarcina sp.; in [4]; in [6]) was 80% throughout. In addition, the entries for the “anaerobic growth with perchlorate” value in the test with Halobacterium sp. NRC-1 [5] and with Halorubrum lacusprofundi [7] were “incapable of anaerobic growth” and “able to grow anaerobically”, respectively. The type of inhibition entry in test [1] (listed as perchlorate) is “very weak noncompetitive inhibitor”; in [1] (listed as perchlorate ions) it was “noncompetitive inhibitor”; in test [1] (listed as sodium perchlorate) it was “noncompetitive inhibition”. In [1] (at the concentrations tested), the “protein precipitation (salting-out)” value was “no protein precipitation”.
